Test results published in patent US20240254115A1 (ACONDICIONAMIENTO TARRASENSE, priority 2021, published 2024).

Assays:
human σ1 receptor = biological target: T1, human σ1 receptor (Homo sapiens, UniProt Q99720); test: Human σ1 receptor radioligand assay; settings: transfected HEK-293 membranes, 5 nM [3H](+)-pentazocine, 37° C. 120 minutes; + may also stand for 1-50% inhibition at 1 or 10 μM; read-out: Binding σ-1 Ki
T1 construct: expressed in transfected cells; host or cells: HEK-293
Experimental: Human σ1 Receptor Radioligand Assay
Transfected HEK-293 membranes (7 μg) were incubated with 5 nM of [^3H](+)-pentazocine in assay buffer containing Tris-HCl 50 mM at pH 8. NBS (non-specific binding) was measured by adding 10 μM haloperidol. The binding of the test compound was measured at either one concentration (% inhibition at 1 or 10 μM) or five different concentrations to determine affinity values (Ki). Plates were incubated at 37° C. for 120 minutes. After the incubation period, the reaction mix was then transferred to MultiScreen HTS, FC plates (Millipore), filtered and plates were washed 3 times with ice-cold 10 mM Tris-HCL (pH7.4). Filters were dried and counted at approximately 40% efficiency in a MicroBeta scintillation counter (Perkin-Elmer) using EcoScint liquid scintillation cocktail.

human σ2/TMEM97 receptor = biological target: T2, human σ2/TMEM97 receptor (Homo sapiens, UniProt Q5BJF2); test: Binding assay to human σ2/TMEM97 receptor; settings: transfected HEK-293 membranes, 10 nM [3H]-DTG, 25° C. 120 minutes; + may also stand for 1-50% inhibition at 1 or 10 μM; read-out: Binding σ-2 Ki
T2 construct: expressed in transfected cells; host or cells: HEK-293
Experimental: Binding Assay to Human σ2/TMEM97 Receptor
Transfected HEK-293 membranes (15 μg) were incubated with 10 nM [^3H]-1,3-Di-o-tolylguanidine (DTG) in assay buffer containing Tris-HCl 50 mM at pH 8.0. NSB (non-specific binding) was measured by adding 10 μM haloperidol. The binding of the test compound was measured at either one concentration (% inhibition at 1 or 10 μM) or five different concentrations to determine affinity values (Ki). Plates were incubated at 25° C. for 120 minutes. After the incubation period, the reaction mix was transferred to MultiScreen HTS, FC plates (Millipore), filtered and washed 3 times with ice-cold 10 mM Tris-HCL (pH 8.0). Filters were dried and counted at approximately 40% efficiency in a MicroBeta scintillation counter (Perkin-Elmer) using EcoScint liquid scintillation cocktail.

T2 sequence (Q5BJF2 whole entry): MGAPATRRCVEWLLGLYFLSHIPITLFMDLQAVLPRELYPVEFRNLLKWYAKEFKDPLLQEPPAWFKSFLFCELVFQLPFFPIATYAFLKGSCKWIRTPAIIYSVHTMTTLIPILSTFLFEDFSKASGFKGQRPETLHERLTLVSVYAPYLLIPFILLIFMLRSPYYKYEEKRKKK
T1 sequence (Q99720 whole entry): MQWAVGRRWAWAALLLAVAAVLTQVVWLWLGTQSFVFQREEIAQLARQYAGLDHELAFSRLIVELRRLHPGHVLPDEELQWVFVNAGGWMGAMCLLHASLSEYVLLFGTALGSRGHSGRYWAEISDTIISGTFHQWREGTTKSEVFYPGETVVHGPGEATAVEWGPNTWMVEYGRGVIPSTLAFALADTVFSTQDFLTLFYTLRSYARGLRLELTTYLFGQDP

## COc1ccc(CNC[C@@H]2CCCN(S(=O)(=O)c3ccc(N4CCOCC4)nc3)C2)cn1 [Example 34, (S)-1-(6-Methoxypyridin-3-yl)-N-((1-((6-morpholinopyridin-3-yl)sulfonyl)piperidin-3-yl)methyl) methanamine]
Human σ1 receptor
  Ki: 500 to 1000 nM
Human σ2/TMEM97 receptor
  Ki: < 100 nM

## O=S(=O)(N[C@H]1CCN(Cc2cccc(F)c2)C1)c1ccc(N2CCOCC2)nc1 [Example 35, (S)—N-(1-(3-Fluorobenzyl)pyrrolidin-3-yl)-6-morpholinopyridine-3-sulfonamide]
Human σ1 receptor
  Ki: < 100 nM
Human σ2/TMEM97 receptor
  Ki: > 1000 nM

## O=S(=O)(N[C@@H]1CCN(Cc2ccc(F)cc2)C1)c1ccc(N2CCOCC2)nc1 [Example 36, (R)-N-(1-(4-Fluorobenzyl)pyrrolidin-3-yl)-6-morpholinopyridine-3-sulfonamide]
Human σ1 receptor
  Ki: < 100 nM
Human σ2/TMEM97 receptor
  Ki: > 1000 nM

## N#Cc1ccc(CN2CC[C@@H](NS(=O)(=O)c3ccc(N4CCOCC4)nc3)C2)cc1 [Example 37, (R)-N-(1-(4-Cyanobenzyl)pyrrolidin-3-yl)-6-morpholinopyridine-3-sulfonamide]
Human σ1 receptor
  Ki: < 100 nM
Human σ2/TMEM97 receptor
  Ki: > 1000 nM

## O=S(=O)(N[C@@H]1CCN(Cc2cccc(F)c2)C1)c1ccc(N2CCOCC2)nc1 [Example 38, (R)-N-(1-(3-Fluorobenzyl)pyrrolidin-3-yl)-6-morpholinopyridine-3-sulfonamide]
Human σ1 receptor
  Ki: < 100 nM
Human σ2/TMEM97 receptor
  Ki: > 1000 nM

## N#Cc1ccc(CN2CC[C@H](NS(=O)(=O)c3ccc(N4CCOCC4)nc3)C2)cc1 [Example 39, (S)-N-(1-(4-Cyanobenzyl)pyrrolidin-3-yl)-6-morpholinopyridine-3-sulfonamide]
Human σ1 receptor
  Ki: < 100 nM
Human σ2/TMEM97 receptor
  Ki: > 1000 nM

## N#Cc1cccc(CN2CC[C@@H](NS(=O)(=O)c3ccc(N4CCOCC4)nc3)C2)c1 [Example 40, (R)-N-(1-(3-Cyanobenzyl)pyrrolidin-3-yl)-6-morpholinopyridine-3-sulfonamide]
Human σ1 receptor
  Ki: 100 to 500 nM
Human σ2/TMEM97 receptor
  Ki: > 1000 nM

## O=S(=O)(N[C@H]1CCN(Cc2ccc(F)cc2)C1)c1ccc(N2CCOCC2)nc1 [Example 41, (S)-N-(1-(4-Fluorobenzyl)pyrrolidin-3-yl)-6-morpholinopyridine-3-sulfonamide]
Human σ1 receptor
  Ki: < 100 nM
Human σ2/TMEM97 receptor
  Ki: > 1000 nM

## N#Cc1cccc(CN2CC[C@H](NS(=O)(=O)c3ccc(N4CCOCC4)nc3)C2)c1 [Example 42, (S)-N-(1-(3-Cyanobenzyl)pyrrolidin-3-yl)-6-morpholinopyridine-3-sulfonamide]
Human σ1 receptor
  Ki: 500 to 1000 nM
Human σ2/TMEM97 receptor
  Ki: > 1000 nM

## O=S(=O)(NC1CN(Cc2ccccc2)C1)c1ccc(N2CCOCC2)nc1 [Example 43, N-(1-Benzylazetidin-3-yl)-6-morpholinopyridine-3-sulfonamide]
Human σ1 receptor
  Ki: < 100 nM
Human σ2/TMEM97 receptor
  Ki: > 1000 nM

## O=S(=O)(N[C@@H]1CCN(Cc2ccc(C(F)(F)F)nc2)C1)c1ccc(N2CCOCC2)nc1 [Example 44, (R)-6-Morpholino-N-(1-((6-(trifluoromethyl)pyridin-3-yl)methyl)pyrrolidin-3-yl)pyridine-3-sulfonamide]
Human σ1 receptor
  Ki: 500 to 1000 nM
Human σ2/TMEM97 receptor
  Ki: > 1000 nM

## O=S(=O)(c1ccc(N2CCOCC2)nc1)N1CCC2(CCN(Cc3ccccc3)CC2)C1 [Example 45, 4-(5-((8-Benzyl-2,8-diazaspiro[4.5]decan-2-yl)sulfonyl)pyridin-2-yl)morpholine]
Human σ1 receptor
  Ki: 500 to 1000 nM
Human σ2/TMEM97 receptor
  Ki: 100 to 500 nM

## O=S(=O)(NC1CC2(CCN(Cc3ccccc3)CC2)C1)c1ccc(N2CCOCC2)nc1 [Example 46, N-(7-Benzyl-7-azaspiro[3.5]nonan-2-yl)-6-morpholinopyridine-3-sulfonamide]
Human σ1 receptor
  Ki: > 1000 nM
Human σ2/TMEM97 receptor
  Ki: 100 to 500 nM

## O=S(=O)(c1ccc(N2CCOCC2)nc1)N1CCC2(CC1)CN(Cc1ccccc1)C2 [Example 47, 4-(5-((2-Benzyl-2,7-diazaspiro[3.5]nonan-7-yl)sulfonyl)pyridin-2-yl)morpholine]
Human σ1 receptor
  Ki: > 1000 nM
Human σ2/TMEM97 receptor
  Ki: 100 to 500 nM

## N#Cc1cccc(CN2CCC3(CC2)CCN(S(=O)(=O)c2ccc(N4CCOCC4)nc2)CC3)c1 [Example 48, 3-((9-((6-Morpholinopyridin-3-yl)sulfonyl)-3,9-diazaspiro[5.5]undecan-3-yl)methyl)benzonitrile]
Human σ1 receptor
  Ki: > 1000 nM
Human σ2/TMEM97 receptor
  Ki: < 100 nM

## CC(C)N([C@@H]1CCN(Cc2ccc(C#N)cc2)C1)S(=O)(=O)c1ccc(N2CCOCC2)nc1 [Example 49, (R)—N-(1-(4-Cyanobenzyl)pyrrolidin-3-yl)-N-isopropyl-6-morpholinopyridine-3-sulfonamide]
Human σ1 receptor
  Ki: > 1000 nM
Human σ2/TMEM97 receptor
  Ki: > 1000 nM

## CC(C)N([C@H]1CCN(Cc2ccc(C#N)cc2)C1)S(=O)(=O)c1ccc(N2CCOCC2)nc1 [Example 50, (S)-N-(1-(4-Cyanobenzyl)pyrrolidin-3-yl)-N-isopropyl-6-morpholinopyridine-3-sulfonamide]
Human σ1 receptor
  Ki: 500 to 1000 nM
Human σ2/TMEM97 receptor
  Ki: > 1000 nM

## O=S(=O)(N[C@H]1CC[C@H](NCc2ccccc2)CC1)c1ccc(N2CCOCC2)nc1 [Example 51, N-((1 r,4r)-4-(Benzylamino)cyclohexyl)-6-morpholinopyridine-3-sulfonamide]
Human σ1 receptor
  Ki: > 1000 nM
Human σ2/TMEM97 receptor
  Ki: 100 to 500 nM

## N#Cc1cc(CN[C@H]2CC[C@H](NS(=O)(=O)c3ccc(N4CCOCC4)nc3)CC2)ccc1F [Example 52, N-((1r,4r)-4-((3-Cyano-4-fluorobenzyl)amino)cyclohexyl)-6-morpholinopyridine-3-sulfonamide]
Human σ1 receptor
  Ki: > 1000 nM
Human σ2/TMEM97 receptor
  Ki: 100 to 500 nM

## O=S(=O)(N[C@H]1CC[C@H](NCc2ccccc2F)CC1)c1ccc(N2CCOCC2)nc1 [Example 53, N-((1r,4r)-4-((2-Fluorobenzyl)amino)cyclohexyl)-6-morpholinopyridine-3-sulfonamide]
Human σ1 receptor
  Ki: > 1000 nM
Human σ2/TMEM97 receptor
  Ki: 100 to 500 nM

## O=S(=O)(N[C@H]1CC[C@H](NCc2cccc(F)c2)CC1)c1ccc(N2CCOCC2)nc1 [Example 54, N-((1r,4r)-4-((3-Fluorobenzyl)amino)cyclohexyl)-6-morpholinopyridine-3-sulfonamide]
Human σ1 receptor
  Ki: 100 to 500 nM
Human σ2/TMEM97 receptor
  Ki: 100 to 500 nM

## O=S(=O)(N[C@H]1CC[C@H](NCc2ccncc2)CC1)c1ccc(N2CCOCC2)nc1 [Example 55, 6-Morpholino-N-((1r,4r)-4-((pyridin-4-ylmethyl)amino)cyclohexyl)pyridine-3-sulfonamide]
Human σ1 receptor
  Ki: > 1000 nM
Human σ2/TMEM97 receptor
  Ki: > 1000 nM

## CN(Cc1ccccc1F)[C@H]1CC[C@H](NS(=O)(=O)c2ccc(N3CCOCC3)nc2)CC1 [Example 56, N-((1r,4r)-4-((2-Fluorobenzyl)(methyl)amino)cyclohexyl)-6-morpholinopyridine-3-sulfonamide]
Human σ1 receptor
  Ki: > 1000 nM
Human σ2/TMEM97 receptor
  Ki: < 100 nM

## CN(Cc1cccc(F)c1)[C@H]1CC[C@H](NS(=O)(=O)c2ccc(N3CCOCC3)nc2)CC1 [Example 57, N-((1r,4r)-4-((3-Fluorobenzyl) (methyl)amino)cyclo-hexyl)-6-morpholinopyridine-3-sulfonamide]
Human σ1 receptor
  Ki: > 1000 nM
Human σ2/TMEM97 receptor
  Ki: < 100 nM

## CN(Cc1ccc(F)c(C#N)c1)[C@H]1CC[C@H](NS(=O)(=O)c2ccc(N3CCOCC3)nc2)CC1 [Example 58, N-((1r,4r)-4-((3-Cyano-4-Fluorobenzyl)(methyl)amino)cyclo-hexyl)-6-morpholinopyridine-3-sulfonamide]
Human σ1 receptor
  Ki: > 1000 nM
Human σ2/TMEM97 receptor
  Ki: < 100 nM

## CN(Cc1cccnc1)[C@H]1CC[C@H](NS(=O)(=O)c2ccc(N3CCOCC3)nc2)CC1 [Example 59, N-((1r,4r)-4-(Methyl(pyridin-3-ylmethyl)amino)cyclohexyl)-6-morpholinopyridine-3-sulfonamide]
Human σ1 receptor
  Ki: > 1000 nM
Human σ2/TMEM97 receptor
  Ki: > 1000 nM

## CN(Cc1ccncc1)[C@H]1CC[C@H](NS(=O)(=O)c2ccc(N3CCOCC3)nc2)CC1 [Example 60, N-((1r,4r)-4-(Methyl(pyridin-4-ylmethyl)amino)cyclohexyl)-6-morpholinopyridine-3-sulfonamide]
Human σ1 receptor
  Ki: > 1000 nM
Human σ2/TMEM97 receptor
  Ki: 100 to 500 nM

## O=S(=O)(c1ccc(N2CCOCC2)nc1)N1CCCC2(CCN(Cc3ccccc3)CC2)C1 [Example 61, 4-(5-((9-Benzyl-2,9-diazaspiro[5.5]undecan-2-yl)sulfonyl)pyridin-2-yl)morpholine]
Human σ1 receptor
  Ki: 100 to 500 nM
Human σ2/TMEM97 receptor
  Ki: < 100 nM

## N#Cc1ccc(CN2CCC3(CCCN(S(=O)(=O)c4ccc(N5CCOCC5)nc4)C3)CC2)cc1F [Example 62, 2-Fluoro-4-((2-((6-morpholinopyridin-3-yl)sulfonyl)-2,9-diazaspiro[5.5]undecan-9-yl)methyl)benzonitrile]
Human σ1 receptor
  Ki: 100 to 500 nM
Human σ2/TMEM97 receptor
  Ki: < 100 nM

## O=S(=O)(c1ccc(N2CCOCC2)nc1)N1CCCC2(CCN(Cc3ccncc3)CC2)C1 [Example 63, 4-(5-((9-(Pyridin-4-ylmethyl)-2,9-diazaspiro[5.5]undecan-2-yl)sulfonyl)pyridin-2-yl)morpholine]
Human σ1 receptor
  Ki: 100 to 500 nM
Human σ2/TMEM97 receptor
  Ki: < 100 nM

## O=S(=O)(c1ccc(N2CCOCC2)nc1)N1CCC[C@H](CNCc2ccc(O)nc2)C1 [Example 64, (R)-5-((((1-((6-Morpholinopyridin-3-yl)sulfonyl)piperidin-3-yl)methyl)amino)methyl)pyridin-2-ol]
Human σ1 receptor
  Ki: > 1000 nM
Human σ2/TMEM97 receptor
  Ki: 100 to 500 nM
